These results are taken from patent US11352363B1, “Spiropyrrolidine derived antiviral agents” (Enanta Pharmaceuticals, Inc., priority 2020, dated 2022).

Structures are written as SMILES. Where only a bound is given, the exact number is not on record here.

One test concerns the target SARS-CoV-2 3CL-protease (Severe acute respiratory syndrome coronavirus 2 (2019-nCoV) (SARS-CoV-2), UniProt P0DTD1). The test can be described thus: SARS-CoV-2 3C-like (3CL) protease fluorescence assay (FRET).
Conditions: not given
The class given is biochemical.
A word on the IC50: it is the concentration that gives 50% inhibition. On to `CC(C)C[C@@H](C(=O)N1C[C@]2(C[C@H]1C#N)C(=O)Nc1ccccc12)N(C)C(=O)c1cc2cc(F)cc(F)c2[nH]1` [Compound 68], for which the concentration for half-maximal inhibition (IC50) was less than 100 nM.

The test is the same for the next values; noted with them: read-out: FRET IC50.
In the case of `CC(C)C[C@@H](C(=O)N1C[C@]2(C[C@H]1C#N)C(=O)Nc1ccccc12)N(C)C(=O)c1ccc(F)c(Cl)c1` [Compound 63], the IC50 was less than 100 nM. `CN(C(=O)c1cc2c(F)cc(F)cc2[nH]1)[C@@H](CC1CCCC1)C(=O)N1C[C@]2(C[C@H]1C#N)C(=O)Nc1ccccc12` [Compound 107]: the IC50 is less than 100 nM. The same measure, in the same setting: the same measure for `CC(C)C[C@@H](C(=O)N1C[C@]2(C[C@H]1C#N)C(=O)Nc1ccccc12)N(C)C(=O)c1cc2c(F)ccc(F)c2[nH]1` [Compound 71]: less than 100 nM. For the compound `CN(C(=O)c1cc2c(OC3CC3)cccc2[nH]1)[C@@H](CC1CCC1)C(=O)N1C[C@]2(C[C@H]1C#N)C(=O)Nc1ccccc12` [Compound 94], the half-maximal inhibitory concentration (IC50) was less than 100 nM. Take `COc1cccc2[nH]c(C(=O)N[C@@H](CC(C)C)C(=O)N3C[C@]4(C[C@H]3C(=O)C(=O)NC3CC3)C(=O)Nc3ccccc34)cc12` [Compound 31]: the IC50 is 100 to 1000 nM.

Take `CC(C)C[C@@H](C(=O)N1C[C@]2(C[C@H]1C#N)C(=O)Nc1ccccc12)N(C)C(=O)c1cc2cc(C(C)(C)C)ccc2[nH]1` [Compound 56]: the IC50 was less than 100 nM. Regarding `CN(C(=O)c1cc2c(F)c(F)ccc2[nH]1)[C@@H](CC(C)(C)C)C(=O)N1C[C@]2(C[C@H]1C#N)C(=O)Nc1ccccc12` [Compound 86], the IC50 is less than 100 nM. Take `COc1cccc2[nH]c(C(=O)N(C)[C@@H](CC(C)C)C(=O)N3C[C@]4(C[C@H]3C#N)C(=O)Nc3ccccc34)cc12` [Compound 42]: the IC50 was less than 100 nM. As for `CN(C(=O)c1cc2c(F)cc(F)c(F)c2[nH]1)[C@@H](CC1CCCC1)C(=O)N1C[C@]2(C[C@H]1C#N)C(=O)Nc1ccccc12` [Compound 109], the IC50 is less than 100 nM.

As for `CC(C)C[C@H](NC(=O)c1cc2c(F)cccc2[nH]1)C(=O)N1C[C@]2(C[C@H]1C#N)C(=O)Nc1ccccc12` [Compound 27], the half-inhibitory concentration (IC50) is less than 100 nM. Same read-out and setting: in the case of `C=CCN(C(=O)OCc1ccccc1)[C@@H](CC(C)C)C(=O)N1C[C@]2(C[C@H]1C#N)C(=O)Nc1ccccc12` [Compound 96] it was less than 100 nM. Consider `CC(C)CC[C@@H](C(=O)N1C[C@]2(C[C@H]1C#N)C(=O)Nc1ccccc12)N(C)C(=O)c1cc2c(F)cc(F)cc2[nH]1` [Compound 104], for which the IC50 was less than 100 nM. The same measure, in the same setting: the same measure for `N#C[C@@H]1C[C@@]2(CN1C(=O)[C@H](CC1CC1)NC(=O)OCc1ccccc1)C(=O)Nc1ccccc12` [Compound 4]: less than 100 nM; for `COc1cccc2[nH]c(C(=O)N[C@@H](CC(C)C)C(=O)N3C[C@]4(C[C@H]3C#N)C(=O)N(C)c3ccccc34)cc12` [Compound 120]: 100 to 1000 nM; for `CC(C)C[C@@H](C(=O)N1C[C@]2(C[C@H]1C#N)C(=O)Nc1ccccc12)N(C)C(=O)c1ncccc1Cl` [Compound 59]: less than 100 nM. Same read-out and setting: the same measure for `CC(C)C[C@H](NC(=O)c1cc2c(F)cccc2[nH]1)C(=O)N1C[C@]2(C[C@H]1C#N)C(=O)Nc1c(F)cccc12` [Compound 28]: less than 100 nM. Turning to `N#C[C@@H]1C[C@@]2(CN1C(=O)[C@H](CC1CCC1)NC(=O)OCc1ccccc1)C(=O)Nc1ccccc12` [Compound 2], the IC50 is less than 100 nM. As to `CC(C)(C)[C@H](NC(=O)OCc1ccccc1)C(=O)N1C[C@]2(C[C@H]1C#N)C(=O)Nc1ccccc12` [Compound 3], the IC50 was greater than 1000 nM.

`COc1cccc2[nH]c(C(=O)N(C)[C@@H](CC3CC3)C(=O)N3C[C@]4(C[C@H]3C#N)C(=O)Nc3ccccc34)cc12` [Compound 114]: the IC50 is less than 100 nM.

Turning to `CC(C)C[C@@H](C(=O)N1C[C@]2(C[C@H]1C(=O)C(=O)NC1CC1)C(=O)Nc1ccccc12)N(C)C(=O)c1cc2c(F)cccc2[nH]1` [Compound 36], the IC50 was 100 to 1000 nM. The same measure, in the same setting: the same measure for `CCCN(C(=O)OCc1ccccc1)[C@@H](CC(C)C)C(=O)N1C[C@]2(C[C@H]1C#N)C(=O)Nc1ccccc12` [Compound 97]: less than 100 nM; for `CC(C)C[C@@H](C(=O)N1C[C@]2(C[C@H]1C#N)C(=O)Nc1ccccc12)N(C)C(=O)c1cc2c(F)c(Cl)ccc2[nH]1` [Compound 73]: less than 100 nM. On the same count and under the same terms, the same measure for `CC(C)C[C@@H](C(=O)N1C[C@]2(C[C@H]1C#N)C(=O)Nc1ccccc12)N(C)C(=O)c1cc2c(F)cc(F)cc2[nH]1` [Compound 46]: less than 100 nM; for `COc1cccc2[nH]c(C(=O)N(C)[C@@H](CCC(C)C)C(=O)N3C[C@]4(C[C@H]3C#N)C(=O)Nc3ccccc34)cc12` [Compound 105]: less than 100 nM. Same read-out and setting: in the case of `COc1cccc2[nH]c(C(=O)N[C@@H](CC(C)C)C(=O)N3C[C@]4(C[C@H]3C(=O)C(=O)NCc3ccccc3)C(=O)Nc3ccccc34)cc12` [Compound 32] it was less than 100 nM.

As to `COc1cccc2[nH]c(C(=O)N[C@@H](CC3CCC3)C(=O)N3C[C@]4(C[C@H]3C#N)C(=O)Nc3ccccc34)cc12` [Compound 17], the IC50 is less than 100 nM. On to `CC(C)(F)C[C@H](NC(=O)OCc1ccccc1)C(=O)N1C[C@]2(C[C@H]1C#N)C(=O)Nc1ccccc12` [Compound 7], for which the IC50 is less than 100 nM. The same measure, in the same setting: in the case of `CN(C(=O)c1cc2c(F)cccc2[nH]1)[C@@H](CC1CCC1)C(=O)N1C[C@]2(C[C@H]1C#N)C(=O)Nc1ccccc12` [Compound 93] it was less than 100 nM. As to `CC(C)C[C@@H](C(=O)N1C[C@]2(C[C@H]1C#N)C(=O)Nc1ccccc12)N(C)C(=O)c1cc2c(C#N)cccc2[nH]1` [Compound 67], the IC50 is less than 100 nM.

For `COc1cccc2c1cc(C(=O)N(C)[C@@H](CC(C)C)C(=O)N1C[C@]3(C[C@H]1C#N)C(=O)Nc1ccccc13)n2C` [Compound 53], the IC50 is less than 100 nM.

With `CN(C(=O)OCc1ccccc1)[C@@H](CC(C)(C)F)C(=O)N1C[C@]2(C[C@H]1C#N)C(=O)Nc1ccccc12` [Compound 101], the IC50 was less than 100 nM. In the case of `CC(C)C[C@@H](C(=O)N1C[C@]2(C[C@H]1C#N)C(=O)Nc1ccccc12)N(C)C(=O)c1cc2cc(-c3ccccc3)ccc2[nH]1` [Compound 54], the IC50 was less than 100 nM. For the compound `CC(C)C[C@@H](C(=O)N1C[C@]2(C[C@H]1C#N)C(=O)Nc1ccccc12)N(C)C(=O)c1cc2ccc(F)cc2[nH]1` [Compound 50], the half-inhibitory concentration (IC50) is less than 100 nM. Consider `Cc1c(C(=O)N(C)[C@@H](CC(C)C)C(=O)N2C[C@]3(C[C@H]2C#N)C(=O)Nc2ccccc23)[nH]c2cc(F)cc(F)c12` [Compound 47], for which the IC50 is less than 100 nM. As for `CCCN(C(=O)c1cc2c(F)cccc2[nH]1)[C@@H](CC(C)C)C(=O)N1C[C@]2(C[C@H]1C#N)C(=O)Nc1ccccc12` [Compound 98], the IC50 is less than 100 nM. In the case of `CC(C)C[C@@H](C(=O)N1C[C@]2(C[C@H]1C#N)C(=O)Nc1ccccc12)N(C)C(=O)c1cc2cc(C(C)C)ccc2[nH]1` [Compound 84], the IC50 is less than 100 nM. In the case of `CC(C)(C)C[C@H](NC(=O)c1cc2c(F)c(F)ccc2[nH]1)C(=O)N1C[C@]2(C[C@H]1C#N)C(=O)Nc1ccccc12` [Compound 20], the IC50 was less than 100 nM. In the case of `COc1cccc2[nH]c(C(=O)N(C)[C@@H](CC3CCCCC3)C(=O)N3C[C@]4(C[C@H]3C#N)C(=O)Nc3ccccc34)cc12` [Compound 113], the IC50 was less than 100 nM.

Regarding `COc1cccc2[nH]c(C(=O)N[C@H](CC(C)(C)C)C(=O)N3C[C@]4(C[C@H]3C#N)C(=O)Nc3ccccc34)cc12` [Compound 16], the IC50 fell in the range of 100 to 1000 nM. With `CN(C(=O)OCc1ccccc1)[C@@H](CC1CC1)C(=O)N1C[C@]2(C[C@H]1C#N)C(=O)Nc1ccccc12` [Compound 102], the IC50 is less than 100 nM. `CC(C)C[C@H](NC(=O)OC(C)(C)c1cccc(Cl)c1)C(=O)N1C[C@]2(C[C@H]1C#N)C(=O)Nc1ccccc12` [Compound 9]: the 50% inhibitory concentration (IC50) fell in the range of 100 to 1000 nM. Take `COc1cccc2[nH]c(C(=O)N[C@H](CC3CCCCC3)C(=O)N3C[C@]4(C[C@H]3C#N)C(=O)Nc3ccccc34)cc12` [Compound 14]: the IC50 lay in the range of 100 to 1000 nM. With `CC(C)C[C@@H](C(=O)N1C[C@]2(C[C@H]1C#N)C(=O)Nc1ccccc12)N(C)C(=O)c1cc2ccccc2[nH]1` [Compound 78], the IC50 is less than 100 nM.

Regarding `CC(C)C[C@@H](C(=O)N1C[C@]2(C[C@H]1C#N)C(=O)Nc1ccccc12)N(C)C(=O)c1cc2ccc(-c3ccccc3)cc2[nH]1` [Compound 55], the IC50 was less than 100 nM. On the same count and under the same terms, in the case of `COc1cccc2[nH]c(C(=O)N[C@@H](CC3CCCCC3)C(=O)N3C[C@]4(C[C@H]3C#N)C(=O)Nc3ccccc34)cc12` [Compound 13] it was less than 100 nM; in that of `COc1cccc2[nH]c(C(=O)N[C@H](CC(C)C)C(=O)N3C[C@]4(C[C@H]3C#N)C(=O)Nc3ccccc34)cc12` [Compound 12], greater than 1000 nM; in that of `CC(C)C[C@@H](C(=O)N1C[C@]2(C[C@H]1C#N)C(=O)Nc1ccccc12)N(C)C(=O)c1cc2cc(F)ccc2[nH]1` [Compound 70], less than 100 nM.

As for `COc1cccc2[nH]c(C(=O)N[C@@H](CC3CC3)C(=O)N3C[C@]4(C[C@H]3C#N)C(=O)Nc3ccccc34)cc12` [Compound 19], the 50% inhibitory concentration (IC50) was less than 100 nM. As to `CC(C)C[C@H](NC(=O)c1cc2c(F)cccc2[nH]1)C(=O)N1C[C@]2(C[C@H]1C=O)C(=O)Nc1ccccc12` [Compound 25], the IC50 is less than 100 nM.

On to `CC(C)C[C@@H](C(=O)N1C[C@]2(C[C@H]1C#N)C(=O)Nc1ccccc12)N(C)C(=O)c1cc2c(Cl)cc(Cl)cc2[nH]1` [Compound 74], for which the IC50 is less than 100 nM. On the same count and under the same terms, in the case of `COc1cccc2[nH]c(C(=O)N[C@@H](CC(C)C)C(=O)N3C[C@]4(C[C@H]3C=O)C(=O)N(C)c3ccccc34)cc12` [Compound 119] it was less than 100 nM; in that of `COc1cccc2[nH]c(C(=O)N(C)[C@@H](CC(C)(C)C)C(=O)N3C[C@]4(C[C@H]3C#N)C(=O)Nc3ccccc34)cc12` [Compound 85], less than 100 nM.

For `CC(C)C[C@@H](C(=O)N1C[C@]2(C[C@H]1C#N)C(=O)Nc1ccccc12)N(C)C(=O)c1cc2c(OC(F)(F)F)cccc2[nH]1` [Compound 49], the 50% inhibitory concentration (IC50) was less than 100 nM. As for `CN(C(=O)c1cc2c(F)cccc2[nH]1)[C@@H](CC1CC1)C(=O)N1C[C@]2(C[C@H]1C#N)C(=O)Nc1ccccc12` [Compound 116], the IC50 was less than 100 nM.
